According to patent publication US20070071792A1, “In VIVO formed matrices including natural biodegradale polysaccharides and ophthalmic uses thereof” (priority 2005, published 2007):
Values belong to the compound of their own block, whether it stands above or below them.

Key:
[1] = tested on: PC-12 cells; test: Cell viability within polyalditol-acrylate redox components (Live/Dead Viability/Cytotoxicity Kit); conditions: 15 min
Method: Cell suspensions were prepared as follows: PC-12 cells (ATCC; passage 5; 75% confluency) were harvested from a T-75 flask using Trypsin-EDTA for 2 minutes. The cells were placed in a 15 mL polyethylene conical (VWR) and centrifuged in F-12k media without serum for 4 minutes at 500 rpm. The cells were counted using a hemocytometer, centrifuged for 4 minutes at 500 rpm, and resuspended at 600,000 cells/mL in sterile PBS.
In order to determine the effect of individual components of the matrix forming compositions on cell viability, solutions A-G were independently mixed with PC-12 cells. 50 uL of cell suspension was added to 350 uL of solutions A-G (Table 7). After a 15 minute incubation, cell viability was assessed using a Live/Dead™ Viability/Cytotoxicity Kit (cat.# L3224; Molecular Probes, Eugene, Oreg.).
The effect of a formed matrix on cell viability was also tested. To form the PD-A matrix, solution #1 (200 mg PD-A, 10 uL TEMED, 20 uL 1N HCl, 470 uL PBS) was added in the amount of 200 uL to a 1.6 ml eppendorf (VWR). Solution #2 (400 mg PD-A, 10 mg Potassium persulfate, 75K PC-12 cells, 500 uL PBS) was added in the amount of 200 uL to solution #1 in the eppendorf and mixed for 10 seconds. After a 15 minute incubation, cell viability was assessed using the Live/Dead™ Viability/Cytotoxicity Kit.

- melting point: 160 to 165 °C
Structure (SMILES): O=C(O)/C=C\C(=O)NCCCCCC(=O)O

Structure (SMILES): N.N.O=S(=O)(O)OOS(=O)(=O)O [Ammonium persulfate]
- Cell viability (%) ([1]; 10 mg/ml in PBS): 90%
- Cell viability (%) ([1]; 120 mg/ml in PBS): 90%

Structure (SMILES): O=S(=O)([O-])OOS(=O)(=O)[O-].[K+].[K+] [Potassium persulfate]
- Cell viability (%) ([1]; 10 mg/ml in PBS): 90%

Structure (SMILES): O=S(=O)([O-])OOS(=O)(=O)[O-].[Na+].[Na+] [Sodium persulfate]
- Cell viability (%) ([1]; 5 mg/ml in PBS): 90%
